From US11530190B2, “Compounds for treating mitochondrial disease” (Khondrion IP B.V., priority 2015, dated 2022)
pEC50: −log10 of the molar value.

Assays:
[1] = tested on: Primary human fibroblasts derived from a patient with mitochondrial disease; assay: Cellular ROS levels after H2O2 induction, CM-H2DCFDA fluorescence; type: cell-based; conditions: compound 10 μM, H2O2 100 μM; FIG. 3
From the text: Methods: CM-H2DCFDA is a cell-permeable reporter molecule for reactive oxygen species (ROS) that is converted into non-fluorescent and membrane-impermeable CM-H2DCF following removal of its acetate groups by intracellular esterases. Upon oxidation by ROS, CM-H2DCF is converted into fluorescent CM-DCF. It is widely accepted that a wide variety of ROS can be responsible for the CM-H2DCF oxidation, making it a suitable reporter of cellular oxidant levels. The average cellular CM-DCF fluorescence intensity is considered an indirect measure of cellular ROS levels.
The effect of the compounds on the intracellular ROS levels was measured in response to an induction of ROS by hydrogen peroxide. Primary human fibroblasts derived from a patient with mitochondrial disease were seeded at a density of 2500 cells/well in a 96-well format plate. […] Wells without cells were used to correct for the background fluorescence. The plate was read on a fluorescence plate reader (Fluostar Omega, BMG labtech) in a kinetic mode with a 2 min interval cycle. After 4 cycles, H2O2 (final concentration 100 μM) was added using onboard injectors and the fluorescence measurement was resumed for 1 hour. After background correction the fluorescence intensities were plotted as a function of time.

[2] = tested on: Primary human fibroblasts obtained from a patient with mitochondrial disease; assay: Intracellular superoxide production, hydroethidine (HEt) fluorescence microscopy; type: cell-based; conditions: approximately 24 hours with increasing concentrations, HEt 10 μM; FIG. 4A-E
Method: Methods: HEt (Hydroethidine) is a non-fluorescent compound, which can enter the cells freely. There it is oxidized by superoxide to its fluorescent products E^+ and 2OHE^+, which accumulate in negatively charged cellular compartments (i.e. nucleus and mitochondria). E^++2OHE^+ fluorescence is thus considered a measure of superoxide production within the cell.
The effect of the compounds on the intracellular superoxide levels was measured. Primary human fibroblasts obtained from a patient with mitochondrial disease were seeded at a density of 3000 cells/well in a 96-well format. The following day, the culture medium was replaced with 100 μl medium containing the compounds at different concentrations. After approximately 24 hours the cells were incubated with 100 μL medium without FBS and phenol red and containing HEt at a final concentration 10 μM (Life Technologies). The cell culture plate containing HEt was placed for 10 minutes at 37° C., 5% CO2. Next, the cells were washed twice with medium, placed in culture medium without FBS and phenol red and visualized by fluorescence microscopy (BD Pathway 855, BDBiosciences). From the obtained images superoxide levels were analysed using Image Pro plus (Media Cybernetics) software.

[3] = tested on: primary human fibroblasts derived from a Complex-I deficient patient; assay: Protection against oxidative stress-induced (BSO) cell death, Calcein-AM viability; type: cell-based
From the text: (§1) Methods: To assess the ability of the compounds to protect patient cells against oxidative stress-induced cell death an assay was established using stressed primary human fibroblasts derived from a Complex-I deficient patient. Utilizing the inherent oxidative stress of fibroblasts from patients with mitochondrial disease, their oxidative burden was further increased by depleting cellular glutathione with an inhibitor of glutathione synthesis, L-buthionine-(S,R)-sulfoximine (BSO).
Cells were seeded at a density of 3000 cells/well in a 96-well format plate and incubated with increasing concentrations of compounds in combination with BSO (200 μM, Sigma-Aldrich). Two days after treatment, the cells were washed twice and stained with a solution of 5 μM Calcein-AM (Life technologies C3100MP) during 25 min in 199 medium without phenol red (Life technologies, 11043-023) at 37° C., 5% CO2. After 2 washes with PBS the plate was read on a fluorescence plate reader (Fluostar Omega, BMG labtech) and the percentage of cell viability was determined as a function of fluorescence intensity (FIG. 2).

[4] = tested on: fibroblasts from healthy individuals; assay: Effect of BSO on viability of fibroblasts from healthy individuals, Calcein-AM; type: cell-based, human; conditions: BSO 200 μM, 48 h; FIG. 1
Method: FIG. 1. Effect of L-buthionine-(S,R)-sulfoximine (BSO), an inhibitor of glutathione synthesis, on the viability of primary human fibroblasts derived from healthy individuals or derived from Complex-I deficient patients. Two days after treatment of 48 h with 200 μM BSO, cells were washed and stained with Calcein-AM. Cell viability was determined as a function of fluorescence intensity.
as §1

[5] = tested on: cultured healthy human skin fibroblasts; conditions: cited from earlier work

Row | SMILES | H2O2-mediated induction of cellular ROS levels (CM-DCF fluorescence) [1] | superoxide scavenging / superoxide levels (HEt fluorescence) [2] | also measured
1 | COC1=C(OC)C(=O)C(CCCCCCCCCCO)=C(C)C1=O [Idebenone] | slightly diminished | only a limited ability to scavenge superoxide | 
2 | CCCCS(=N)(=O)CCC(N)C(=O)O [BSO, L-buthionine-(S,R)-sulfoximine] |  |  | viability of patient fibroblasts after BSO insult ([3]; BSO 200 μM alone, within 48 h, FIG. 1): complete cell death; viability of fibroblasts from healthy individuals after BSO insult [4]: retained full viability
3 | Cc1c(C)c2c(c(C)c1O)CCC(C)(C(=O)O)O2 (centres unmarked) [Trolox, 6-hydroxy-2,5,7,8-tetramethylchroman-2-carboxylic acid] |  |  | levels of ROS [5]: reduces the levels of ROS
4 | CC(C)=CCC/C(C)=C/CC/C(C)=C/CC[C@@](C)(O)CCC1=C(C)C(=O)C(C)=C(C)C1=O [EPI743] | slightly diminished | only a limited ability to scavenge superoxide | pEC50 ([3]; 200 μM BSO, two days, Calcein-AM cell viability, formate salt, read-out: EC50 in protecting the cells against oxidative stress-induced cell death): 7.45
